Laboratory results published in patent US12329159B2, “Systems and methods for use of chlorine dioxide in cultivation and post-harvest applications” (Prokure Solutions, LLC, priority 2018, dated 2025).
“And” between values parts separate entries of the source, which are not always exact repeats. Identical values can stand only once.

What was measured:
total spores = assay: Spore trap testing, treated greenhouse: Total spores; assay type: in vivo; details: 1.2 mg chlorine dioxide gas per hour per 4000 cubic feet
Experimental: (§1) Very low-level chlorine dioxide protection using about 3 mg chlorine dioxide gas per hour for every 4000 cubic feet (50-gram ProKure® D Extended Release Gas product (ProKure® Solutions), 2000 mg total over 4 weeks) was tested to determine the effects on reduction and prevention of fungal microorganism counts. The rate of chlorine dioxide production will vary depending on the relative humidity (RH) in the room. The above rate is for RH range of 40-60%. Each 3 mg chlorine dioxide per hour product (50-gram) unit will cover 4000 cubic feet of space. The 4000 cubic foot volume is recommended for safety reasons. This volume of space insures that the concentration of the gas remains below the OSHA regulated Permissible Exposure Limit (PEL) which is 0.1 ppmv (time weighted average (TWA) over a 8-hours per day or 40-hour work week) and the Short Term Exposure Limit (STEL) which is 0.3 ppmv (TWA over any 15-minute period) for chlorine dioxide.
(§2) All data is based on the dose described a unless otherwise noted. The spore counts per cubic meter prior to treatment are compared to spore counts per cubic meter post treatment with the treatment time indicated. […]
(§3) Treatment was performed using 1.2 mg chlorine dioxide gas per hour per 4000 cubic feet. […] The fungus could not be detected by visual inspection after about 30 days of treatment. […]

[1] = test system: visible mold growing on flowers; assay: Trial 3: gaseous chlorine dioxide treatment of flowering plants with visible mold; assay type: in vivo; details: 0.45 mg chlorine dioxide gas per cubic foot, 18 hours
Experimental: A third trial was performed in a 33400 cubic foot space with 840 flowering plants at week eight of an eight-week cultivation cycle. Most plants had visible mold growing on flowers. The chlorine dioxide dose was 0.45 mg chlorine dioxide gas per cubic foot of space. Contact time was 18 hours, the room was maintained in darkness for the first 12 hours, and grow lights came on for the last 6 hours contact time, but the chlorine dioxide gas concentration monitoring was only performed for about 10 hours.
The HVAC system for the 33400 cubic foot space that had 840 flowering plants in the last week of flower failed. Within hours the temperature and humidity increased, and visible mold growth was found on most of the flower within 24 hours. To treat the mold and potentially prevent the loss of over 100 pounds of Cannabis flower product, a dose of 0.45 mg chlorine dioxide gas per cubic foot was dispensed into the space (14× ProKure® G Fast Release Gas packets (25-gram) (ProKure® Solutions)). […] Essentially, it was never above the detection limit of the sensor (0.5 ppmv). […] An odor would be expected for this application rate, so the lack of odor provides further evidence that the concentration of chlorine dioxide remained below the odor threshold of about 0.03 to 0.1 ppmv. […]

Cannabis plants [2] = assay: Toxicity responses of Cannabis plants to applications of gaseous chlorine dioxide; assay type: in vivo
Text: Two varieties of Cannabis plants in both vegetative and flowering stages were exposed to various amounts of chlorine dioxide gas to determine if plant damage would result. Adverse effects were based on discoloration or chlorosis type damage to leaves and/or flowers. Leaves of each plant were collected prior to experiments and again 2 days post treatment for tissue analysis. Leaf samples were sent to a third-party laboratory for analysis of nutrients and total chloride (Cl^−). Tissue analysis of leaves pre- and post-treatment were compared to determine uptake of chlorine dioxide and/or its by-products. Control plants were used for visual comparison in determining plant damage. All plants were monitored for several days after application of chlorine dioxide gas. Plants were potted in soil and appeared healthy and undamaged unless otherwise noted. All plants including controls were of the same age for each growth stage. • The chlorine dioxide gas exposure was based on concentration with units of mg of chlorine dioxide per cubic foot of space.
A first trial was performed in a space of 1550 cubic feet with four healthy plants in the space, two of which were in flower at week 5 of 8, and the other two of which had one week of vegetative stage remaining. The chlorine dioxide dose was 1.9 mg chlorine dioxide per cubic foot of space (one 25 g ProKure® G Fast Release Gas packet (ProKure® Solutions, Phoenix, AZ) and 4 liters of 500 ppm chlorine dioxide solution). Contact time was 18 hours, and the room was maintained in darkness for the duration of the contact time.
A second trial was performed in a space of about 33400 cubic feet with 840 flowering plants at week eight of an eight-week cultivation cycle. All plants were healthy. […] The chlorine dioxide dose was 0.45 mg chlorine dioxide gas per cubic foot of space. Contact time was 18 hours, and the room was maintained in darkness for the first 12 hours, and grow lights came on for the last 6 hours of contact time, but the chlorine dioxide gas concentration monitoring was only performed for about 10 hours.

Smuts/Myxomycetes = assay: Spore trap testing, treated greenhouse: Smuts/Myxomycetes; assay type: in vivo; details: 1.2 mg chlorine dioxide gas per hour per 4000 cubic feet
Experimental: as §1, §2, §3

Torula = assay: Spore trap testing, treated greenhouse: Torula; assay type: in vivo; details: 1.2 mg chlorine dioxide gas per hour per 4000 cubic feet
Experimental: as §1, §2, §3

Ascospores = assay: Spore trap testing, treated greenhouse: Ascospores; assay type: in vivo; details: 1.2 mg chlorine dioxide gas per hour per 4000 cubic feet
Experimental: as §1, §2, §3

Cannabis plants [3] = assay: Effects of chlorine dioxide on vegetative growth (grow tent, leaf count); assay type: in vivo; details: about 3 mg of chlorine dioxide per hour, 10 days; for Leaf Count # of new leaves / Leaf Count Final: Experimental tent, 240 cubic feet
Experimental: Experiments were performed to determine the effects of using a continuous release dose of about 3 mg of chlorine dioxide per hour on the vegetative growth of Cannabis plants.
Cannabis plants were placed in a grow tent and grown under artificial lighting for 10 days. Leaf counts were performed prior to placing in the tent and again after 10 days. Two separate grow tents were used, one for the experiment and one as the control. The total leaf count was compared between the experimental and control plants. Temperature and relative humidity measurements were taken 3 times per day to ensure both tents maintained the same environmental conditions.
A pouch was hung from the top of the inside of the experimental tent. The pouch dispensed approximately 3 mg of chlorine dioxide per hour for the duration of the trial (10 days). Within the experimental tent the Cannabis plants were exposed to about 720 mg of gaseous chlorine dioxide over the 10-day period.
Three Cannabis plants were placed into each tent. Two of the plants were of a Cannabis indica variety, and one plant was a Cannabis sativa variety. The photoperiod used in both tents was 20 hours with lights on followed by 4 hours with lights off. All watering, nutrients, pest control, etc. were identical for all plants.

Bipolaris/Drechslera = assay: Spore trap testing, treated greenhouse: Bipolaris/Drechslera; assay type: in vivo; details: 1.2 mg chlorine dioxide gas per hour per 4000 cubic feet
Experimental: as §1, §2, §3

Chaetomium = assay: Spore trap testing, treated greenhouse: Chaetomium; assay type: in vivo; details: 1.2 mg chlorine dioxide gas per hour per 4000 cubic feet
Experimental: as §1, §2, §3

Basidiospores = assay: Spore trap testing, treated greenhouse: Basidiospores; assay type: in vivo; details: 1.2 mg chlorine dioxide gas per hour per 4000 cubic feet
Experimental: as §1, §2, §3

Fusarium = assay: Spore trap testing, treated greenhouse: Fusarium; assay type: in vivo; details: 1.2 mg chlorine dioxide gas per hour per 4000 cubic feet
Experimental: as §1, §2, §3

[4] = cited from earlier work
Cladosporium = assay: Spore trap testing, treated greenhouse: Cladosporium; assay type: in vivo; details: 1.2 mg chlorine dioxide gas per hour per 4000 cubic feet
Experimental: as §1, §2, §3

Ulocladium = assay: Spore trap testing, treated greenhouse: Ulocladium; assay type: in vivo; details: 1.2 mg chlorine dioxide gas per hour per 4000 cubic feet
Experimental: as §1, §2, §3

Cannabis plants [5] = assay: Toxicity responses of Cannabis plants to foliar applications of chlorine dioxide; assay type: in vivo; details: for plants with damage to floral tissue (discoloration): after the third application
Experimental: Regular and excessive rates of chlorine dioxide dissolved in water were sprayed up to five times at 2-day intervals on two varieties of Cannabis plants in both vegetative and flowering stages to determine if plant damage would result. Adverse effects were assessed based on visible discoloration or chlorosis of leaves and/or flowers. All plants were monitored for several days after the final application of chlorine dioxide.
Experiments were performed in a greenhouse with temperatures between 70° F. and 80° F. Plants were potted in soil and appeared healthy and undamaged prior to treatment. All plants received the same amount of water and nutrients as controls, delivered via soil drenching. All plants, including controls, were the same age. At the beginning of the experiments, both flowering and vegetative plants had 3 weeks of the respective growth stage remaining.
Concentrations of chlorine dioxide tested include 0, 50, 100, and 500 ppm. All chlorine dioxide solutions were prepared from 500 ppm stock solution, mixed in containers and used immediately. Each of the rates was tested in triplicate with separate plants in both stages of growth and with Cannabis indica and Cannabis sativa Cannabis plants. A common trigger sprayer bottle with the tip adjusted to a mist setting was used to apply treatments. Plants were sprayed until all leaves and stems were visibly wet. Each treatment rate was applied at 2-day intervals, and the number of applications ranged from 1 to 5 depending on the amount of damage that occurred to the plant.
Damage was assessed 2 days after an application and prior to the next application. Treated plants were assessed for damage 6 days after the 5th and final spray treatment. Observed symptoms associated with the application of chlorine dioxide were necrosis of leaf tissue appearing as lesions between and across leaf veins and at leaf margins. Early symptoms included yellowing of leaves. Some lesions had dark brown borders and/or appeared desiccated.

Penicillium/Aspergillus = assay: Spore trap testing, treated greenhouse: Penicillium/Aspergillus; assay type: in vivo; details: 1.2 mg chlorine dioxide gas per hour per 4000 cubic feet
Experimental: as §1, §2, §3

Aureobasidium = assay: Spore trap testing, treated greenhouse: Aureobasidium; assay type: in vivo; details: 1.2 mg chlorine dioxide gas per hour per 4000 cubic feet
Experimental: as §1, §2, §3

Oidium = assay: Spore trap testing, treated greenhouse: Oidium; assay type: in vivo; details: 1.2 mg chlorine dioxide gas per hour per 4000 cubic feet
Experimental: as §1, §2, §3

Alternaria = assay: Spore trap testing, treated greenhouse: Alternaria; assay type: in vivo; details: 1.2 mg chlorine dioxide gas per hour per 4000 cubic feet
Experimental: as §1, §2, §3

[6] = test system: unidentified fungal strain having an appearance similar to powdery mildew; assay: Visual inspection of fungal infection on greenhouse mother plants; assay type: in vivo; details: 1.2 mg chlorine dioxide gas per hour per 4000 cubic feet, 4500 mother plants
Experimental: An experimental trial was performed in a greenhouse with approximately 1×10^6 cubic feet of space holding 4500 mother plants. All plants were potted in soil and were approximately 5-7 feet tall, depending on whether cuttings had recently been taken for clone propagation. Plants evidenced visible signs of infection with an unidentified fungal strain having an appearance similar to powdery mildew. The fungus was actively growing and covered most leaves and major stalks. The fungus was a strain that only infected the surface of the plants and was not systemic in the plants.
Treatment was performed using 1.2 mg chlorine dioxide gas per hour per 4000 cubic feet. Spore trap testing was performed pre-treatment and at seven days post-treatment. The fungus could not be detected by visual inspection after about 30 days of treatment. Treatment continued as a preventative measure, with further spore trap testing at 45 days post treatment. Spore trap data follows below in Table 5.

[7] = 500 ppm foliar spray, all plants, after the fifth application

[O][Cl+][O-] [chlorine dioxide]
Total spore Count (total spores; 7 Days Post-Treatment): 320 per cubic meter | Total spore Count (total spores; 45 Days Post-Treatment): 13 per cubic meter | visible mold on the plants after the application [1]: No mold was visible on the plants after the application | assessment of the dose (Cannabis plants [2]; Trial 1, 1.9 mg chlorine dioxide per cubic foot): considered detrimental | plant death (Cannabis plants [2]; Trial 1, 1.9 mg chlorine dioxide per cubic foot, 18 hours): none of the 4 plants died | plant damage (Cannabis plants [2]; Trial 1, 1.9 mg chlorine dioxide per cubic foot, 18 hours, 24-48 hours post-treatment): all 4 plants showed damage in the form of yellowing and chlorosis | plant appearance (Cannabis plants [2]; Trial 1, 1.9 mg chlorine dioxide per cubic foot, immediately following the 18 hours of contact time): the plants still appeared healthy | plant damage (Cannabis plants [2]; Trial 2, 0.45 mg chlorine dioxide per cubic foot, 18 hours, 840 healthy flowering plants): All plants remained healthy and undamaged | Smuts/Myxomycetes spore Count (Smuts/Myxomycetes; 7 Days Post-Treatment): 173 per cubic meter | Smuts/Myxomycetes spore Count (Smuts/Myxomycetes; 45 Days Post-Treatment): 13 per cubic meter | Torula spore Count (Torula; 7 Days Post-Treatment): 0 per cubic meter | Torula spore Count (Torula; 45 Days Post-Treatment): 0 per cubic meter | Ascospores Count (Ascospores; 7 Days Post-Treatment): 27 per cubic meter | Ascospores Count (Ascospores; 45 Days Post-Treatment): 0 per cubic meter | Leaf Count # of new leaves (Cannabis plants [3]; Indica): 68 and 36 | Leaf Count Final (Cannabis plants [3]; Indica): 92 and 61 | Leaf Count # of new leaves (Cannabis plants [3]; Sativa): 52 | Leaf Count Final (Cannabis plants [3]; Sativa): 83 | visible sign of adverse effects (Cannabis plants [3]; 240 cubic feet tent): none of the plants showed any visible sign of adverse effects | Bipolaris/Drechslera spore Count (Bipolaris/Drechslera; 7 Days Post-Treatment): 0 per cubic meter | Bipolaris/Drechslera spore Count (Bipolaris/Drechslera; 45 Days Post-Treatment): 0 per cubic meter | Chaetomium spore Count (Chaetomium; 7 Days Post-Treatment): 0 per cubic meter | Chaetomium spore Count (Chaetomium; 45 Days Post-Treatment): 0 per cubic meter | Basidiospores Count (Basidiospores; 7 Days Post-Treatment): 53 per cubic meter | Basidiospores Count (Basidiospores; 45 Days Post-Treatment): 0 per cubic meter | Fusarium spore Count (Fusarium; 7 Days Post-Treatment): 0 per cubic meter | Fusarium spore Count (Fusarium; 45 Days Post-Treatment): 0 per cubic meter | Short Term Exposure Limit (STEL) ([4]; TWA over any 15-minute period): 0.3 ppmv | OSHA regulated Permissible Exposure Limit (PEL) ([4]; time weighted average over 8 hours per day or 40-hour work week): 0.1 ppmv | Cladosporium spore Count (Cladosporium; 7 Days Post-Treatment): 54 per cubic meter | Cladosporium spore Count (Cladosporium; 45 Days Post-Treatment): 0 per cubic meter | Ulocladium spore Count (Ulocladium; 7 Days Post-Treatment): 0 per cubic meter | Ulocladium spore Count (Ulocladium; 45 Days Post-Treatment): 0 per cubic meter | foliar or flower tissue damage (Cannabis plants [5]; 50 ppm chlorine dioxide in water, foliar spray, five applications at 2-day intervals): No foliar or flower tissue damage was visible | plants exhibiting damage to leaves (Cannabis plants [5]; 100 ppm foliar spray, indica-type flowering plants, two days after the 4th application): Two out of the three | damage to leaves or flowers (Cannabis plants [5]; 100 ppm foliar spray, sativa-type flowering plants): None of the sativa-type flowering plants exhibited damage to leaves or flowers | visible damage to leaves (Cannabis plants [5]; 100 ppm foliar spray, vegetative plants of both varieties): exhibited visible damage to leaves following the fourth application | smell compared with control plants (Cannabis plants [5]; [7]): did not have the same smell as control plants | tissue damage (Cannabis plants [5]; [7]): exhibited tissue damage after the fifth application | leaf damage (Cannabis plants [5]; 500 ppm foliar spray, all plants, single application): exhibited leaf damage 24 to 48 hours after a single application | plants with damage to floral tissue (discoloration) (Cannabis plants [5]; 500 ppm foliar spray, indica-type plants): 2 of the 3 | plants with damage to floral tissue (discoloration) (Cannabis plants [5]; 500 ppm foliar spray, sativa-type plants): 1 of the 3 | Penicillium/Aspergillus spore Count (Penicillium/Aspergillus; 7 Days Post-Treatment): 0 per cubic meter | Penicillium/Aspergillus spore Count (Penicillium/Aspergillus; 45 Days Post-Treatment): 0 per cubic meter | Aureobasidium spore Count (Aureobasidium; 7 Days Post-Treatment): 0 per cubic meter | Aureobasidium spore Count (Aureobasidium; 45 Days Post-Treatment): 0 per cubic meter | Oidium spore Count (Oidium; 7 Days Post-Treatment): 13 per cubic meter | Oidium spore Count (Oidium; 45 Days Post-Treatment): 0 per cubic meter | Alternaria spore Count (Alternaria; 7 Days Post-Treatment): 0 per cubic meter | Alternaria spore Count (Alternaria; 45 Days Post-Treatment): 0 per cubic meter | time of treatment after which the fungus could not be detected by visual inspection [6]: about 30 days
